Test results as given in US20010034367A1, “Compositions and methods for the treatment of cystic fibrosis” (priority 1998, published 2001).
“Also recorded” adds a separate entry of the source. Read-outs that look alike come from different tables or passages of the source.

Columns and labels:
ΔF508-CFTR [1] = target: T1, ΔF508-CFTR (Homo sapiens, UniProt P13569, DEL508-508); settings: 1 M or 10%; cited from earlier work
T1 construct: primary cultures of nasal polyp epithelia from CF patients (ΔF508 homozygous or heterozygous), or the CF bronchial epithelial cell line IB3-1; endogenous in cells; host or cells: primary nasal polyp epithelia from CF patients; IB3-1 CF bronchial epithelial cell line
T1 sequence (P13569 with tags, fused parts or gaps DEL508-508): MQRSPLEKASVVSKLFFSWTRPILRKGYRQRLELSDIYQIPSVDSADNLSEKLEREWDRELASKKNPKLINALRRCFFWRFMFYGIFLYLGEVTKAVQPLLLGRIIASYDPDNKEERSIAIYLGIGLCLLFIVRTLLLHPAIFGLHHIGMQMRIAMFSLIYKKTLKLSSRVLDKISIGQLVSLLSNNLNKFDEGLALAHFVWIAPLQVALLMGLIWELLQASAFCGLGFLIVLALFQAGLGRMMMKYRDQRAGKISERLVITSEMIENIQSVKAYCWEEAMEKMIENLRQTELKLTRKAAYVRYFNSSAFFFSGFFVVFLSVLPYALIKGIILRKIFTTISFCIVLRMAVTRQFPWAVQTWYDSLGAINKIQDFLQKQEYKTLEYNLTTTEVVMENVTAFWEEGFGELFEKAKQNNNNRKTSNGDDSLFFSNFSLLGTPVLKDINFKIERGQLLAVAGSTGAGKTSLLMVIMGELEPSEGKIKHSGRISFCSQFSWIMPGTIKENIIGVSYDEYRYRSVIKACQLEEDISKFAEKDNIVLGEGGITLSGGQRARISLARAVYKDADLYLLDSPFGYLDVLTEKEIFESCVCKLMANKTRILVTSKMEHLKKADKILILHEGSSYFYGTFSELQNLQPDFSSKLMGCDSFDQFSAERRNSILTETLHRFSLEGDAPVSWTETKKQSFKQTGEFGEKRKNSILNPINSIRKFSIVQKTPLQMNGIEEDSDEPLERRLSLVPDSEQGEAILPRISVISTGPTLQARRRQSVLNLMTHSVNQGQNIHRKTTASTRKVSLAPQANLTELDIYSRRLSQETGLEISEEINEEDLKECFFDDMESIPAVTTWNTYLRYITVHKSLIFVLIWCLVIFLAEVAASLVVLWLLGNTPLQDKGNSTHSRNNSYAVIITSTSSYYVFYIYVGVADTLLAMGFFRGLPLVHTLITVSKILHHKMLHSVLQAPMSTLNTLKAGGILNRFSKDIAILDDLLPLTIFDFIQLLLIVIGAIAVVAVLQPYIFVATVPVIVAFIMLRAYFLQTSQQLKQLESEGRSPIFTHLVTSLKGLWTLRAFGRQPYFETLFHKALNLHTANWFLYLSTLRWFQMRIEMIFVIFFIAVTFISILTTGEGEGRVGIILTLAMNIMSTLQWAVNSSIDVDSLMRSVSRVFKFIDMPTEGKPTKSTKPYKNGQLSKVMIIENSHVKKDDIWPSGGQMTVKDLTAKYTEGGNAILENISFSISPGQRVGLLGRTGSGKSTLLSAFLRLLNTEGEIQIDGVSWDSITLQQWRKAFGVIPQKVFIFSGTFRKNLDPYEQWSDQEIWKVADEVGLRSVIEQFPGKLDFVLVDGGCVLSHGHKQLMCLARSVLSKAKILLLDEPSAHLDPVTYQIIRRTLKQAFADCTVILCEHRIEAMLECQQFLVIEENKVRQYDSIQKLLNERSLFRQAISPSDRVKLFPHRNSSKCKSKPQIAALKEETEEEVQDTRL

[2] = in vivo; cited from earlier work
fetal hemoglobin = fetal hemoglobin levels in thalassemic patients; format: in vivo
Excerpt: Compositions administered in pulses have the surprising benefit of reducing the overall load of drug on the patient as the total amount of drug administered can be substantially less than that amount that has been therapeutically administered by conventional continuous therapy. Substantially means that there is more than an insignificant difference between the amount or concentration of a composition administered by pulsing according to the invention verses the amount or concentration administered using conventional therapy, without compromising the beneficial effect achieved to the patient. […] Typical pulsed amounts of arginine butyrate are from about 2 to about 20 g/kg/month, and preferably from about 3 to about 10 g/kg/month wherein the patient receives a total of less than about 20 kg per month, preferably less than about 15 kg per month and more preferably less than about 10 kg per month. […] Preferably, the therapeutically effective pulsed dose is less than the continuous dose, or less than one half, one third, one quarter, one fifth, one tenth or even one twentieth of the therapeutic continuous dose of the same composition or even less.

[3] = test system: ΔF508-homozygous pancreatic acinar cell line; settings: cited from earlier work
ΔF508-CFTR [4] = settings: up to 300 mM; cited from earlier work
IB3-1 cells = settings: respiratory epithelial cells; 1-2 mM; cited from earlier work
CFTR gene = settings: cited from earlier work
ΔF508-CFTR [5] = settings: cited from earlier work
ΔF508-CFTR [6] = settings: CF epithelial cells; cited from earlier work
[7] = in vivo; cited from earlier work; remark: listed apart in the source
ΔF508-CFTR [8] = target: T1, ΔF508-CFTR; settings: 0.1 and 2 mM; primary nasal polyp epithelia or IB3-1 cells; up to 7 days in culture; cited from earlier work
ΔF508-CFTR [9] = target: T1, ΔF508-CFTR; settings: IB3-1 cells; 2.5 mM; cited from earlier work

For `OCC(O)CO` [glycerol], the “movement of ΔF508-CFTR from the ER to the plasma membrane” value (ΔF508-CFTR [1]) is listed as “facilitate movement of ΔF508-CFTR from the ER to the plasma membrane”.
In the case of arginine butyrate, the half-life [2] is listed as 15 min, the “effectiveness at continuous administration” value (fetal hemoglobin; about 2000 mg/kg patient weight, continuous) is listed as “effective” and the “benefit measured by rise in fetal hemoglobin levels” value (fetal hemoglobin; about 400 to 1500 mg/kg in pulses, thalassemic patients) is listed as “surprisingly more beneficial”.
In the case of `CCCC(=O)O` [butyrate, butyric acid], the cAMP-responsive chloride secretion [3] is given as “can induce cAMP-responsive chloride secretion”, the “cAMP-stimulation indicative of chloride ion transport” value (ΔF508-CFTR [4]) is given as “no increases in cAMP-stimulation was observed” and the “cell health, growth rate and morphology” value (IB3-1 cells) is given as “morphologic changes in IB3-1 cells, with rounding of cells and decreased growth rate”.
In the case of `O=C(O)CCCc1ccccc1` [4PBA, 4-phenylbutyrate], the “CFTR RNA levels” value (CFTR gene) is given as “no changes in CFTF RNA levels; also recorded: no increases in CFTR mRNA”, the “CFTR immunoreactivity in immunoblot experiments” value (ΔF508-CFTR [5]; 4PBA-treated samples) is given as “increased CFTR immunoreactivity” and the “higher molecular mass forms of CFTR (immunoblot)” value (ΔF508-CFTR [5]; IB3-1 cells, 0.1-1 mM) is given as “appearance of higher molecular mass forms of CFTR”. For the same molecule, the “higher molecular mass forms of CFTR (immunoblot)” value (ΔF508-CFTR [5]; primary nasal epithelia, 5 mM) was “appearance of higher molecular mass forms of CFTR”, the “amount of ΔF508-CFTR by immunocytochemistry” value (ΔF508-CFTR [6]) was “consistent with increasing amounts of ΔF508-CFTR; also recorded: Increased CFTR immunoreactivity” and the clinical tolerability [7] was “not well tolerated”. For the same molecule, the forskolin-activated chloride secretion (ΔF508-CFTR [8]) was “restoration of forskolin-activated chloride secretion” and the “protein kinase A-activated, linear, 10 pS chloride channels at the plasma membrane” value (ΔF508-CFTR [9]) was “appeared at the plasma membrane”.
